Assay results as given in patent US5883092A, “Pyrimidine derivatives as endothelin antagonists” (Kowa Co., Ltd., priority 1995, dated 1999).

Experiments:
ETB = target: T1, ETB (Rattus norvegicus, UniProt P21451); assay: Endothelin binding inhibition experiment, 125I-endothelin-1 binding, ETB, membranes from rat brain; conditions: 125I-endothelin-1 2×10^-11 M, 2 hours at 25° C., pH 7.4
T1 construct: Rat brain tissue was minced, and a crude receptor membrane sample was prepared; from tissue; host or cells: rat brain; crude membranes
T1 sequence (P21451 27-442): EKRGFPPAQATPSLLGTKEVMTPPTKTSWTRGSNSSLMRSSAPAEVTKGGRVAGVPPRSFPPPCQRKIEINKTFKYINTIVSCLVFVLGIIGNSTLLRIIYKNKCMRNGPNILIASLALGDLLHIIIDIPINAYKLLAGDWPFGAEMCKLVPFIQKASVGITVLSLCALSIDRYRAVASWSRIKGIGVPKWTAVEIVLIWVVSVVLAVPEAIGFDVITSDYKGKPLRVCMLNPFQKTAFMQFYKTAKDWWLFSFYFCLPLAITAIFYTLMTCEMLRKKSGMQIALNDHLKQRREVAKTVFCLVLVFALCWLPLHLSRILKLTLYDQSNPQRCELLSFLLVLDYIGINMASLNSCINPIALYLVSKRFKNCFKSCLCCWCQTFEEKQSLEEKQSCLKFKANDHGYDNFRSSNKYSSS
Experimental: (§1) Endothelin binding inhibition experiment
(§2) The thus-obtained membrane sample (1 μl) was incubated together with ^125 I-endothelin-1 (2×10^-11 M) and various concentrations of the compounds, for 2 hours at 25° C., in 250 μl in total volume of 50 mM Tris-HCl buffer (pH 7.4) containing 0.5% bovine serum albumin. The incubated mixture was filtered by use of HVPP filters (pore size 0.45 μm, product of Milipore). The filters were washed with cold buffer A four times, and then measured with a gamma-ray counter (Aroka Autowell Gamma System ARC-251). Preparation of crude receptor membrane samples (ETB) from rat brain and assay of ^125 I endothelin-1:
Rat brain tissue was minced, and a crude receptor membrane sample was prepared in a manner similar to that used in the aforementioned case of porcine thoracic aorta. Also, ^125 I-endothelin-1 assay was performed in the same manner as described above.

ETA = target: T2, ETA (Sus scrofa, UniProt Q29010); assay: Endothelin binding inhibition experiment, 125I-endothelin-1 binding, ETA, membranes from smooth muscles of porcine thoracic aorta; conditions: 125I-endothelin-1 2×10^-11 M, 2 hours at 25° C., pH 7.4
T2 construct: crude receptor membrane samples (ETA) from smooth muscles of porcine thoracic aorta; from tissue; host or cells: porcine thoracic aorta smooth muscle, endothelium removed; crude membranes
T2 sequence (Q29010 21-427): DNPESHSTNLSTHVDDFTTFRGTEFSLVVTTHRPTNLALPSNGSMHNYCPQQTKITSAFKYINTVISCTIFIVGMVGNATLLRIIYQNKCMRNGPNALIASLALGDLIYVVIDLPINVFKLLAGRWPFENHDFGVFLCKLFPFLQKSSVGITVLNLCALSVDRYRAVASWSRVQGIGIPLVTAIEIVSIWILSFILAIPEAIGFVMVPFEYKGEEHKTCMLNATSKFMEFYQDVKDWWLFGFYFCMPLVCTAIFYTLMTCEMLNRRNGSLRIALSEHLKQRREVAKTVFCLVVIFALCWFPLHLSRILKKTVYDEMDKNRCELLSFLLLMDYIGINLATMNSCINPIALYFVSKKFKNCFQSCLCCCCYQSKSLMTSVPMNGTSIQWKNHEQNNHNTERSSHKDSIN
Experimental: as §1
Preparation of crude receptor membrane samples (ETA) from smooth muscles of porcine thoracic aorta:
Porcine thoracic aorta which was separated from the fatty tissue and then was removed endothelium with gauze was minced, and then homogenized in three times the volume of Tris-HCl buffer (pH 7.4) (buffer A) containing 0.25M sucrose, 3 mM ethylenediaminetetraacetic acid, 5 μg/ml of aprotinin, 10 μg/ml of pepstatin A, 10 μg/ml of leupeptin, and 0.1 μM p-amidinophenylmethanesulfonyl fluoride. After centrifugation for 30 minutes at 1,000×g, the supernatant was further centrifuged for 30 minutes at 100,000×g. The pellets were suspended in buffer A, and recentrifuged for 30 minutes at 100,000×g. The pellets were suspended in buffer A and the suspension was stored at -80° C. ^125 I-Endothelin-1 binding assay:
as §2, with “endothelin-1: […]” for “endothelin-1:”

| IC50 (ETB) [nM] | IC50 (ETA) [nM] | Compound |
| --- | --- | --- |
| 5.1 | 240 | COc1ccccc1Oc1c(NS(=O)(=O)c2ccc(C(C)(C)C)cc2)nc(N2CCOCC2)nc1OCCC(=O)OCc1ccccc1 [Example 23, benzyl 3-[6-(4-t-butylphenylsulfonylamino)-5-(2-methoxyphenoxy)-2-morpholino-4-pyrimidinyloxy]propionate] |
| 5.4 | 68 | COc1ccccc1Oc1c(NS(=O)(=O)c2ccc(C(C)(C)C)cc2)nc(N2CCN(C=O)CC2)nc1OCCC(=O)Nc1ccccc1C(C)C [Example 13, N-(2-isopropylphenyl)-3-[6-(4-t-butylphenylsulfonylamino)-2-(4-formylpiperazinyl)-5-(2-methoxyphenoxy)-4-pyrimidinyloxy]-propionamide] |
| 29 | 32 | COc1ccccc1Oc1c(NS(=O)(=O)c2ccc(C(C)(C)C)cc2)nc(N2CCOCC2)nc1OCCC(=O)Nc1ccccn1 [Example 3, N-(2-pyridyl)-3-[6-(4-t-butylphenylsulfonylamino)-5-(2-methoxyphenoxy)-2-morpholino-4-pyrimidinyloxy]propionamide] |
| 0.86 | 63 | COc1ccccc1Oc1c(NS(=O)(=O)c2ccc(C(C)(C)C)cc2)nc(N2CCOCC2)nc1OCCC(=O)Nc1ccccc1C(C)C [Example 2, N-(2-isopropylphenyl)-3-[6-(4-t-butylphenylsulfonylamino)-5-(2-methoxyphenoxy)-2-morpholino-4-pyrimidinyloxy]propionamide] |
